Laboratory results from patent publication US10899910B2, “Quaternary cationic polymers” (ECOLAB USA, INC., priority 2016, dated 2021).

Experiments:
[1] = Surface tension measurement (Tracker tensiometer); format: physicochemical; conditions: room temperature
Method: Surface tension measurements were conducted on a Tracker tensiometer (Teclis Instruments) at room temperature. Various concentrations of surfactant solutions were prepared and measurements were conducted.
The surface tension as a function of concentration of the cationic surfactant samples were measured and are listed in Table 2, where NT means not tested.

[2] = Corrosion bubble cell test (Linear Polarization Resistance); conditions: 2 ppm with 1% 2ME synergist, 80° C.
Method: (§1) Cationic polymer salts were evaluated for corrosion performance as compared to a C12-C18 alkyl dimethyl benzyl ammonium chloride via a bubble test procedure. The bubble test simulates low flow areas where little or no mixing of water and oil occurs. The test was conducted using brine (80% of the brine being 3% sodium chloride brine and 20% of the brine being a hydrocarbon containing 75% LVT-200 kerosene oil and 25% xylene). The brine was placed into kettles and purged with carbon dioxide. The brine was continually purged with carbon dioxide to saturate the brine prior to starting the test. After the test began, the test cell was blanketed with carbon dioxide one hour prior to electrode insertion and through the duration of the test to maintain saturation. The kettles were stirred at 150 revolutions per minute (rpm) for the duration of the test to maintain thermal equilibrium at 80° C. The corrosion rate was measured by Linear Polarization Resistance (LPR) techniques. The working electrode used was carbon steel. The counter and reference electrodes were both 1018 carbon steel. The electrodes were all cleaned and polished prior to testing. Data were collected for three hours before 20 ppm of each of the compositions (containing 2 ppm of each of various pentaquaternary cationic polymer salts or the comparative C12-C18 alkyl dimethyl benzyl ammonium chloride and 1% 2-mercaptoethanol (2ME) as synergist in an organic solvent) was dosed into its respective cell. Data were collected overnight. A low concentration of the compositions was used to differentiate between the compositions.
Corrosion bubble cell tests were performed according to the method of Example A1 to evaluate a hexaquaternary cationic polymer salt for corrosion performance as compared to a C12-C18 alkyl dimethyl benzyl ammonium chloride. Data were collected for three hours before 20 ppm of each of the compositions (containing 2 ppm of a hexaquaternary cationic polymer salt or the comparative C12-C18 alkyl dimethyl benzyl ammonium chloride and 1% 2ME as synergist in an organic solvent) was dosed into its respective cell. Data were collected overnight. A low concentration of the compositions was used to differentiate between the compositions.
as §1, with “six” for “three”, “polyethyleneimine-based” for “pentaquaternary”, “cell. However, for the comparative composition, data was only collected three hours before addition of the compositions.” for “cell.”

[3] = test system: collection of aerobic bacteria from 30 water samples in cooling towers across North America; experiment: Biofilm reduction (biofilm inhibition test, stain absorbance at 590 nm); format: cell-based; conditions: for (Comp. - Single Quat 2)*100 / Single Quat 2: biofilm reduction relative to Single Quat 2
Method: Biofilm reduction experiments were conducted to test the efficacy of multi-quaternary cationic polymers compared to single quaternary compounds. Two different compositions were prepared containing single quaternary compounds: a composition (Single Quat 1) comprising about 50% by weight bisoctyl dimethyl ammonium chloride (CAS #5538-94-3) and about 5-10% by weight glycerin; and a composition (Single Quat 2) comprising about 50% by weight didecyl-dimethyl ammonium chloride (CAS #7173-51-5) and about 10-30% by weight ethanol. The test bacteria comprised a collection of aerobic bacteria from 30 water samples in cooling towers across North America. Different concentrations of cationic polymer salts and single quaternary compounds were tested ranging from about 0.8 ppm to about 1000 ppm. Using the biofilm inhibition test protocols, the absorbed stains were extracted and absorbance was measured at 590 nm. The biofilm reduction was calculated by comparing the absorbance of treated vs untreated controls, then averaged over six replicates.

[4] = CO2-saturated brine/hydrocarbon, three hours baseline (Tables 8, 9)

CCCCCCCCCCCCCCCCCC[N+](C)(C)CC(O)CN(CCN(CCN(CC(O)C[N+](C)(C)C)CC(O)C[N+](C)(C)C)CC(O)C[N+](C)(C)C)CC(O)C[N+](C)(C)C.[Cl-].[Cl-].[Cl-].[Cl-].[Cl-] (stereo not drawn) [Compound 7]
Surface tension ([1]; concentration 0.010 %): 73.70 mN/m | Surface tension ([1]; concentration 0.025 %): 72.05 mN/m | Surface tension ([1]; concentration 0.050 %): 64.84 mN/m | Surface tension ([1]; concentration 0.100 %): 60.93 mN/m | Surface tension ([1]; concentration 0.200 %): 57.12 mN/m | Surface tension ([1]; concentration 0.500 %): 55.13 mN/m | % Protection [2, 4]: 64% | Biofilm reduction ([3]; active conc. 0.8 ppm): 22.9% | (Comp. - Single Quat 2)*100 / Single Quat 2 ([3]; active conc. 0.8 ppm): 106.8% | Biofilm reduction ([3]; active conc. 1.6 ppm): 12.7% | (Comp. - Single Quat 2)*100 / Single Quat 2 ([3]; active conc. 1.6 ppm): 321.3% | Biofilm reduction ([3]; active conc. 3.0 ppm): 46.7% | (Comp. - Single Quat 2)*100 / Single Quat 2 ([3]; active conc. 3.0 ppm): 35.5% | Biofilm reduction ([3]; active conc. 6.0 ppm): 23.5% | (Comp. - Single Quat 2)*100 / Single Quat 2 ([3]; active conc. 6.0 ppm): 195.0% | Biofilm reduction ([3]; active conc. 8.0 ppm): 54.9% | (Comp. - Single Quat 2)*100 / Single Quat 2 ([3]; active conc. 8.0 ppm): −20.8% | Biofilm reduction ([3]; active conc. 12.0 ppm): 65.1% | (Comp. - Single Quat 2)*100 / Single Quat 2 ([3]; active conc. 12.0 ppm): 24.2% | Biofilm reduction ([3]; active conc. 16.0 ppm): 90.6% | (Comp. - Single Quat 2)*100 / Single Quat 2 ([3]; active conc. 16.0 ppm): 10.9% | Biofilm reduction ([3]; active conc. 25.0 ppm): 90.6% | (Comp. - Single Quat 2)*100 / Single Quat 2 ([3]; active conc. 25.0 ppm): 12.9% | Biofilm reduction ([3]; active conc. 31.0 ppm): 94.7% | (Comp. - Single Quat 2)*100 / Single Quat 2 ([3]; active conc. 31.0 ppm): 16.0% | Biofilm reduction ([3]; active conc. 50.0 ppm): 93.0% | (Comp. - Single Quat 2)*100 / Single Quat 2 ([3]; active conc. 50.0 ppm): 15.7% | Biofilm reduction ([3]; active conc. 62.0 ppm): 96.6% | (Comp. - Single Quat 2)*100 / Single Quat 2 ([3]; active conc. 62.0 ppm): 47.6% | Biofilm reduction ([3]; active conc. 100.0 ppm): 79.3% | (Comp. - Single Quat 2)*100 / Single Quat 2 ([3]; active conc. 100.0 ppm): 608.5% | Biofilm reduction ([3]; active conc. 125.0 ppm): 96.6% | (Comp. - Single Quat 2)*100 / Single Quat 2 ([3]; active conc. 125.0 ppm): 1517.3% | Biofilm reduction ([3]; active conc. 250.0 ppm): 97.1% | (Comp. - Single Quat 2)*100 / Single Quat 2 ([3]; active conc. 250.0 ppm): 15.3% | Biofilm reduction ([3]; active conc. 500.0 ppm): 97.8% | (Comp. - Single Quat 2)*100 / Single Quat 2 ([3]; active conc. 500.0 ppm): 6.3% | Biofilm reduction ([3]; active conc. 1000.0 ppm): 98.4% | (Comp. - Single Quat 2)*100 / Single Quat 2 ([3]; active conc. 1000.0 ppm): 63.7% | biofilm reduction compared with the Single Quat 2 composition ([3]; at concentrations as low as about 12 ppm): reduced biofilms to a greater extent than the Single Quat 2 composition

CCCCCCCCCCCCCCCCCC[N+](C)(C)CC(O)CN(CCN(CCN(CC(O)C[N+](C)(C)CCCCCCCCCCCCCCCCCC)CC(O)C[N+](C)(C)CCCCCCCCCCCCCCCCCC)CC(O)C[N+](C)(C)C)CC(O)C[N+](C)(C)C.[Cl-].[Cl-].[Cl-].[Cl-].[Cl-] (stereo not drawn) [Compound 10]
Surface tension ([1]; concentration 0.010 %): 70.99 mN/m | Surface tension ([1]; concentration 0.025 %): 61.99 mN/m | Surface tension ([1]; concentration 0.050 %): 57.33 mN/m | Surface tension ([1]; concentration 0.100 %): 52.64 mN/m | Surface tension ([1]; concentration 0.200 %): 50.58 mN/m | Surface tension ([1]; concentration 0.500 %): 47.92 mN/m | Surface tension ([1]; concentration 1.000 %): 47.48 mN/m

CCCCCCCCCCCCCCCCCC[N+](C)(C)CC(O)CN(CCN(CCN(CC(O)C[N+](C)(C)CCCCCCCCCCCCCCCCCC)CC(O)C[N+](C)(C)CCCCCCCCCCCCCCCCCC)CC(O)C[N+](C)(C)C)CC(O)C[N+](C)(C)CCCCCCCCCCCCCCCCCC.[Cl-].[Cl-].[Cl-].[Cl-].[Cl-] (stereo not drawn) [Compound 11]
Surface tension ([1]; concentration 0.010 %): 63.52 mN/m | Surface tension ([1]; concentration 0.025 %): 60.01 mN/m | Surface tension ([1]; concentration 0.050 %): 56.35 mN/m | Surface tension ([1]; concentration 0.100 %): 53.23 mN/m | Surface tension ([1]; concentration 0.200 %): 50.16 mN/m | Surface tension ([1]; concentration 0.500 %): 47.38 mN/m | Surface tension ([1]; concentration 1.000 %): 46.58 mN/m | % Protection [2, 4]: 76%

CCCCCCCCCCCCCCCCCC[N+](C)(C)CC(O)CN(CCN(CC(O)C[N+](C)(C)CCCCCCCCCCCCCCCCCC)CC(O)C[N+](C)(C)CCCCCCCCCCCCCCCCCC)CCN(CC(O)C[N+](C)(C)CCCCCCCCCCCCCCCCCC)CC(O)C[N+](C)(C)CCCCCCCCCCCCCCCCCC.[Cl-].[Cl-].[Cl-].[Cl-].[Cl-] (stereo not drawn) [Compound 12]
Surface tension ([1]; concentration 0.010 %): 63.16 mN/m | Surface tension ([1]; concentration 0.025 %): 55.77 mN/m | Surface tension ([1]; concentration 0.050 %): 51.89 mN/m | Surface tension ([1]; concentration 0.100 %): 49.42 mN/m | Surface tension ([1]; concentration 0.200 %): 47.02 mN/m | Surface tension ([1]; concentration 0.500 %): 45.02 mN/m | Surface tension ([1]; concentration 1.000 %): 44.22 mN/m | Surface tension ([1]; concentration 1.500 %): 43.46 mN/m | Surface tension ([1]; concentration 2.000 %): 42.97 mN/m | % Protection [2, 4]: 55%

CCCCCCCCCCCCCCCCCC[N+](C)(C)CC(O)CN(CCN(CCN(CC(O)C[N+](C)(C)CCCCCCCCCCCCCCCCCC)CC(O)C[N+](C)(C)CCCCCCCCCCCCCCCCCC)CC(O)C[N+](C)(C)CCCCCCCCCCCCCCCCCC)CCN(CC(O)C[N+](C)(C)CCCCCCCCCCCCCCCCCC)CC(O)C[N+](C)(C)CCCCCCCCCCCCCCCCCC.[Cl-].[Cl-].[Cl-].[Cl-].[Cl-].[Cl-] (stereo not drawn) [Compound 13]
Surface tension ([1]; concentration 0.010 %): 63.28 mN/m | Surface tension ([1]; concentration 0.025 %): 59.04 mN/m | Surface tension ([1]; concentration 0.050 %): 55.36 mN/m | Surface tension ([1]; concentration 0.100 %): 52.65 mN/m | Surface tension ([1]; concentration 0.200 %): 50.31 mN/m | Surface tension ([1]; concentration 0.500 %): 48.02 mN/m | Surface tension ([1]; concentration 1.000 %): 47.78 mN/m | % Protection [2, 4]: 52%

C12-C18 alkyl dimethyl benzyl ammonium chloride [reference compound]
% Protection ([2]; six hours baseline (comparative: three hours) (Table 10)): 38% | % Protection [2, 4]: 38%
